Patent US20250295610A1, “NEUROPROTECTIVE AGENTS FOR USE IN THE TREATMENT OF OPTIC NEUROPATHIES” (The Board of Trustees of the Leland Stanford Junior …, priority 2021, published 2025)
Entries after “also recorded” stand apart in the source; their conditions may differ.

Legend:
[1] = test system: CHOP promoter-driven luciferase (CHOP-Luc) in HEK293T cells; experiment: CHOP-Luc reporter cell-based assay (HTS and retest); design: species or system human; details: Tm/Tg 1 μM; for CHOP-luciferase activity induced by ER stress (Tm/Tg): compound at 10 µM, relative to DMSO (FIG. 1d); for CHOP-luciferase activity: compound at 20 μM, 24 hours (FIG. 9e)
Description: ER stress reporter cell lines.
Cell-based HTS. The HTS to identify CHOP expression inhibitors was performed at the Stanford High-Throughput Bioscience Center with small molecule libraries containing 4846 total known bioactive, FDA approved drugs and clinical trial compounds; libraries included Biomol FDA, Biomol ICCB, Microsource (MS) Spectrum, Sigma LOPAC, and NIH Clinical Collection (NIH-CC). All the compounds were run in 7-point dose response based on a previous publication; except the NIH Clinical collection (446 compounds) which were tested in duplicate due to the small quantity of compounds on hand. Most of the NIH-CC was screened at 10 µM, but this varied per compound. […] We used the Pin Tool to transfer 100 nL of the compounds into 50 μL final volume. Therefore, we did a 500-fold dilution of the stock plates, which were at 10, 5, 2.5, 1.25, 0.625, 0.3125, and 0.156 mM resulting in final concentrations of 20, 10, 5, 2.5, 1.25, 0.625, and 0.3125 µM (for most of the compounds but not all). The final DMSO concentration was 0.2% for all wells. Briefly, CHOP-Luc cells were seeded in 384-well plates (Greiner Bio-One […]) at a density of 2×10^5 cells per well in 40 μL medium and cultured for 24 hours before treatment with tunicamycin (Tm)+thapsigargin (Tg) at 1 μM in 10 μL medium followed by adding 100 nL of one of the testing compounds using a Staccato SciClone ALH3000 small molecule liquid handling system (Caliper Life Sciences) and V&P Scientific 384 pin tools. AeraSeal sterile adhesive microplate seals (Excel Scientific; Victorville, CA) were used to seal plates that were incubated at 5% CO2, 37° C. for 24 hours, when luciferase activity was assayed by adding 10 μL of Bright™-Glo Luciferase reagent (Promega) to each well and detected by a Tecan Infinite M1000 Pro plate reader. Percentage of CHOP-Luc inhibition=100%−(Compound value−DMSO control value)/(Tm/Tg value−DMSO control value)×100%. The compounds achieving >30% of CHOP-Luc inhibition were considered as “hits”. Luciferase activity of all the tested compounds was determined by meta-analysis of luciferase activity in different cell lines under the control of a generic or other promoters. Any compound that appeared in more than 3 non-related luciferase screens was likely a toxic compound or luciferase inhibitor and therefore eliminated. There was no true cutoff, other than an IC50<20 µM (or the highest concentration tested).

[2] = test system: RGC somata and axons, mouse ONC model; experiment: Neuroprotection in traumatic ON crush (ONC) model; assay type: in vivo; details: for neuroprotection of RGCs and ONs: mouse ONC model, traumatic ON injury; for GCC thickness by OCT: mouse ONC, intravitreal 2 μl of 2 mM once + i.p. 15 mg/kg daily, vs DMSO
Description: ON crush model. The ON was exposed intraorbitally while care was taken not to damage the underlying ophthalmic artery, and crushed with a jeweler's forceps (Dumont #5; Fine Science Tools, Foster City, California) for 5 seconds approximately 0.5 mm behind the eyeball. Eye ointment containing neomycin (Akorn, Somerset, New Jersey) was applied to protect the cornea after surgery. For compound treatment, each eye received intravitreal injection with 2 μl of 2 mM test compounds once and intraperitoneal (i.p.) injection daily (15 mg/kg) for 14 days after ONC.

[3] = test system: ONC-induced ER stress in RGCs; experiment: ER stress molecules in RGCs and ONs after ON crush (ONC); details: mouse, after traumatic ON injury, in vivo application
Description: Protein Preparation and Immunoblotting. Cell and tissue lysates were prepared in RIPA buffer (Themo Fisher Scientific, 89901) and supplemented with Halt Protease inhibitor cocktail (Themo Fisher Scientific, PI78437). The total protein concentration of lysates was measured by the Pierce BCA Protein Assay Kit (Thermo Fisher Scientific, 23227). 20 μg protein of each sample were denatured at 95° C. for 15 min in 100 mM DTT+1× Laemmli buffer before being separated by SDS-PAGE. We then transferred the protein samples to 0.2 μm nitrocellulose membranes (Bio-Rad, 1610097) and blocked with 5% BSA for 2 hours. Subsequently, the membranes were incubated with primary antibodies (1:1000) overnight at 4° C. After washing in TBST, these membranes were incubated with horseradish peroxidase-conjugated secondary antibodies (Cell Signaling, 7074S and 7076S, 1:1000) and visualized using a GE-A1600 imaging system. Images were quantified with ImageJ software. The primary antibodies used were PERK (Cell Signaling, 3192S), p-PERK (Cell Signaling, 3179S), eIF2a (Cell Signaling, 5324S), p-eIF2a (Cell Signaling, 3597L), ATF4 (Cell Signaling, 11815S), CHOP (Cell Signaling, 2895S), ATF6 (Cell Signaling, 65880T), IRE1a (Cell Signaling, 3294T), IRE1 (phosphor-S724) (Thermo Fisher, PA116927), phospho-SAPK/JNK (Thr183/Tyr185) (Cell Signaling, 9251S), phospho-p38 MAPK (Thr180/Tyr182) (Cell Signaling, 9215S), β-Actin (sigma, A5441), XBP-1s (Biolegend, 647502), XBP-1 (Santa Cruz, sc-8501), anti-RBPMS (Custom made at ProSci Inc).
ON crush model. The ON was exposed intraorbitally while care was taken not to damage the underlying ophthalmic artery, and crushed with a jeweler's forceps (Dumont #5; Fine Science Tools, Foster City, California) for 5 seconds approximately 0.5 mm behind the eyeball. Eye ointment containing neomycin (Akorn, Somerset, New Jersey) was applied to protect the cornea after surgery. For compound treatment, each eye received intravitreal injection with 2 μl of 2 mM test compounds once and intraperitoneal (i.p.) injection daily (15 mg/kg) for 14 days after ONC. […]

[4] = test system: three UPR pathways induced by ER stress (Tm/Tg) in HEK293T cells; experiment: UPR signaling cascades in HEK293T cells (immunoblot, RT-PCR, qPCR); assay type: cell-based, human; details: Tm/Tg 1 μM; for UPR pathways induced by ER stress: HEK293T cells, compound 10 μM; for XBP-1 mRNA splicing: RT-PCR
[5] = mouse, 6 and 24 hours after injection
Description: Retinal tissues were homogenized with 100 μL of pre-chilled 20% acetonitrile and then diluted 2-fold with blank mouse plasma. An aliquot of 20 μL of diluted retina homogenate was extracted with 100 μL of methanol: acetonitrile (5:95, v: v) containing the internal standard (Verapamil). The mixture was shaken on a shaker for 15 minutes and then centrifuged at 3220 g for 15 minutes. An aliquot of 70 μL of the supernatant was mixed with 70 μL of water for the injection to the LC-MS. Calibration standards and quality control samples were prepared by spiking 2 μL of the test compound into 18 μL of blank mouse plasma, and the resulting plasma was processed with the unknown samples in the same batch. The extracts were analyzed by a Shimadzu LC-30AD interfaced to a Sciex API 5000 system. The extracts were injected onto an ACE 3 C18 column (50×2.1 mm, 3.0 μm) and separated by the gradient elution using water with 10 mM ammonium acetate (A) and acetonitrile with 0.1% formic acid (B) as mobile phases. The gradient program started at 10% B, held for 0.2 min, ramped to 95% B at 1.5 min, remained at 95% at 2.4 min, dropped to 10% B at 2.45 min, and stayed at 10% B till 3.2 min. […] The calibration curve fitted by linear regression was used to quantify the analytes in the matrix using Analyst software 1.6.2 (Sciex).

RGCs expressing jGCaMP7s = details: living mice, SLO, early and later time points after ONC
Description: In vivo RGC Ca^2 + imaging with SLO. The mice were intravitreally injected with AAV2-mSncg-jGCaMP7s (9×10^9 vg/retina) 4 weeks before imaging. The mice were anesthetized by xylazine and ketamine after dark adaptation for 30 minutes. Mydriasis was achieved by applying a drop of 1% tropicamide solution and a drop of 2.5% phenylephrine hydrochloride solution, which prevents pupillary contraction during recording. Right after ON crush, the mice were placed on a 3D-printed mouse holder with a 37° C. heater, and a custom-made+10D mouse contact lens (3.0 mm diameter, 1.6 mm BC, PMMA clear, Advanced Vision Technologies) attached to keep the cornea from drying. The retinal fundus was imaged by the Heidelberg Spectralis SLO/OCT system (Heidelberg Engineering, Germany) with a 55° lens using the fluorescein angiography scanning mode under the same sensitivity (sensitivity 75-85) and high-resolution (1536×1536 pixels).

[6] = test system: naïve mouse retinas and ON; details: one month after systemic administration
Description: Immunohistochemistry of whole mount and cross sections of retina. After perfusion fixation with 4% PFA in PBS, mice eyeballs and ONs were dissected out and post-fixed with 4% PFA for 2 hours at room temperature. Retinas were dissected out for whole mount retina immunostaining. For cryo-section with Leica cryostat, the eyeballs and ONs were embedded in tissue-tek OCT (Sakura) on dry ice for subsequent cryo-section. The sections were blocked with 10% goat serum (Sigma, G9023) for 2 hours before incubating with primary antibodies: RBPMS 1:4000, others 1:200 overnight at 4° C. […]
RGC counting. Whole-mount retinas were immunostained with the RBPMS antibody, 6-8 fields randomly sampled from peripheral regions of each retina using a 40× lens with a Zeiss M2 epifluorescence microscope, and RBPMS+RGCs counted by Volocity software (Quorum Technologies). The percentage of RGC survival was calculated as the ratio of surviving RGC numbers in injured eyes compared to contralateral uninjured eyes. The investigators who counted the cells were masked to the treatment of the samples.
ON semi-thin sections and quantification of surviving axons. […] Two areas of 21.4 μm×29.1 μm were cropped from the center of each image, and the surviving axons within the designated areas counted manually using ImageJ. […]

[7] = test system: XBP-1-Luc HEK293T reporter cell line (IRE1α activity and XBP-1 splicing); details: Tm/Tg 1 μM, 24 hours
RGCs expressing D4ER = details: mouse retina explants after ONC
Description: Ex vivo ER Ca^2 + imaging in retina explants. ER calcium levels were measured using the Forster resonance energy transfer (FRET)-based ER targeted calcium sensor, D4ER. […] For imaging, retinas were dissected out at 3, 7 or 14dpc and plated onto laminin (Sigma, L2020) and poly-D-lysin-coated glass bottom dishes (MatTek, P35GC1.510C) and maintained in Neurobasal-A medium (ThermoFisher Scientific, 10888022) supplemented with L-glutamine (Gibco, 25030-081), penicillin/streptomycin (Gibco, 15140122) and B-27 (ThermoFisher Scientific, 0080085SA). Retina explants were imaged using a Zeiss LSM 800 microscope. ER [Ca^2 +] levels were determined by exciting D4ER at 440 nm to record the emitted light at 465-485 nm and 530-550 nm, and analyzed with ImageJ.

HEK293T cells = HEK293T cells expressing jGCaMP7s, Tm/Tg 1 μM
Description: HEK293T cells were seeded at 10% confluence the day before transfection in poly-D-lysin-coated glass bottom 35 mm dishes (MatTek, P35GC1.510C). Two hours prior to transfection, media was removed and 1 mL of FBS-free DMEM media was added to each well. We then mixed 2 μg of the jGCaMP7s plasmid in 100 μl DMEM. In a separate tube, we diluted 4 μl PolyJet™ (SignaGen Laboratories, SL100688) reagent in 100 μl with DMEM, and incubate for 10 minutes. The complete mixture of DNA and PolyJet was incubated for another 15 min before being added to the HEK293T cells. Six hours later, the media was changed to 1 ml/well culture media. The next day, cytosolic Ca^2 + was imaged in cells transiently transfected with jGCaMP7s through a Zeiss LSM 800 confocal microscope. Dynamic intracellular Ca^2 + influx in response to Tm/Tg-induced ER stress was measured every 10 seconds for 100 seconds before Tm/Tg treatment to acquire baseline fluorescence (F0) and for 400 seconds after Tm/Tg administration to acquire F1. ΔF=F1−F0. Data were analyzed with ImageJ.

[8] = test system: visual function, mouse SOHU glaucoma model; experiment: Visual function (PERG, OKR) in SOHU glaucoma model; assay type: in vivo; details: 3wpi, vs DMSO
Description: Control groups received the same volume of DMSO as vehicle control.
Pattern Electroretinogram (PERG) recording. After anesthetization and pupil dilation, PERG of both eyes was recorded simultaneously with the Miami PERG system (Intelligent Hearing Systems, Miami, Florida) according to manufacturer's instructions. Two consecutive recordings of 200 traces were averaged to achieve one readout; each trace recorded up to 1020 ms. The first positive peak in the waveform was designated as P1 and the second negative peak as N2. The amplitude was measured from P1 to N2.
Optokinetic Tracking Response (OKR). Mice were placed on a platform in the center of four 17-inch LCD computer monitors (Dell, Phoenix, AZ), with a video camera above the platform to capture the movement of the mouse. A rotating cylinder with vertical sine wave grating was computed and projected to the four monitors by OptoMotry software (Cere-bralMechanics Inc, Lethbridge, Alberta, Canada). […] The maximum frequency (cycle/degree) that the mouse could track was identified and recorded by investigators masked to treatment. The relative percentages of visual acuity were calculated as the ratio of maximum frequency in disease eye compared to contralateral control eye.

[9] = test system: CHO luciferase reporter cell line driven by murine CHOP promoter; details: different CHO luciferase reporter cell line; cited from earlier work
[10] = HEK293T, immunoblot, 10 μM, 24 hours

SMILES	neuroprotection of RGCs and ONs [2]	CHOP-luciferase activity induced by ER stress (Tm/Tg) ([1]; 24 hours)	CHOP-luciferase activity [1]	RGC ER stress [3]	GCC thickness by OCT ([2]; 14dpc)	UPR pathways induced by ER stress [4]	further results
Cn1cc(-c2ccc3c(c2)CCN3C(=O)Cc2cccc(C(F)(F)F)c2)c2c(N)ncnc21 [GSK2606414]							CHOP-luciferase activity induced by Tm/Tg, reference compounds ([1]; FIG. 1d and FIG. 9e (10 µM and 20 μM), 24 hours): significantly inhibited
O=C(COc1ccc(Cl)cc1)NC1CCC(NC(=O)COc2ccc(Cl)cc2)CC1 (stereo not drawn) [ISRIB]	provided neuroprotection in the ONC mouse model, to a lesser degree than maprotiline; also recorded: significant neuroprotection	no effect; also recorded: did not have a significant inhibition effect					
COc1ccc2c(c1)CC[C@@H]1[C@@H]2CC[C@]2(C)[C@@H](NCCCCCCN3C(=O)C=CC3=O)CC[C@@H]12 [U-73122]							protection of RGC axons ([2]; mouse, after ONC injury, 14dpc): protected; protection of RGC somata ([2]; mouse, after ONC injury, 14dpc): protected
CN(C)CCC=C1c2ccccc2CCc2ccccc21 [amitriptyline]			inhibited				
Clc1ccc2c(c1)C(N1CCNCC1)=Nc1ccccc1O2 [amoxapine]	significantly protects	significantly inhibited		effectively inhibits	significantly thicker	inhibit all three UPR pathways	XBP-1 mRNA splicing ([4]; HEK293T, 10 μM, 24 hours): significantly inhibited
CN(C)CCCN1c2ccccc2CCc2ccc(Cl)cc21 [clomipramine]			inhibited				
CNCCCN1c2ccccc2CCc2ccccc21 [desipramine]			inhibited				
Clc1ccc2c(c1)CCc1cccnc1C2=C1CCNCC1 [desloratadine]	significantly protects			effectively inhibits	significantly thicker	inhibit all three UPR pathways	JNK phosphorylation [4, 10]: significantly inhibited
CNCCCC12CCC(c3ccccc31)c1ccccc12 [maprotiline]	significantly protects	significantly inhibited		effectively inhibits	significantly thicker	inhibit all three UPR pathways	maprotiline in the retina after i.p. injection (LC-MS) [5]: presence of maprotiline in the retina; intra-RGC Ca2+ levels after ONC (RGCs expressing jGCaMP7s): significantly decreased; RGC or ON degeneration [6]: no RGC or ON degeneration; immune cell infiltration in retina and ON [6]: no immune cell infiltration; XBP-1 splicing induced by Tm/Tg (XBP-1s-Luc) [7]: dose-dependent inhibition; downstream genes of UPR at the mRNA levels (qPCR) ([4]; HEK293T, 12 hours, 10 µM): the most striking modulation; XBP-1 mRNA splicing ([4]; HEK293T, 10 μM, 24 hours): significantly inhibited; IRE1α phosphorylation [4, 10]: inhibited; JNK phosphorylation [4, 10]: significantly inhibited; ER Ca2+ concentration of RGCs after ONC (D4ER FRET) (RGCs expressing D4ER): maintained ER Ca^2 + concentration at much higher levels; Tm/Tg-induced intracellular Ca2+ influx (HEK293T cells): significantly blocked; amplitude of PERG [8]: improved; visual acuity (OKR) [8]: improved
CN1CCN(CCCN2c3ccccc3Sc3ccc(C(F)(F)F)cc32)CC1 [trifluoperazine]			inhibited				CHOP inhibitor in a previous study [9]: CHOP inhibitor
